Test results as given in patent publication US9376425B2, “Heterocyclic compounds as MDM2 inhibitors for the treatment of cancer” (AMGEN INC., priority 2011, dated 2016).

Target: T1, human MDM2 (GST-hMDM2 1-188), interaction with biotinylated-p53 (1-83) (Homo sapiens, UniProt Q00987)
T1 construct: Amino acid residues 1-188 of human MDM2 were expressed; made in house; host or cells: Escherichia coli
Assay: improved HTRF assay (HTRF2 assay), inhibition of HDM2-p53 interaction
Format: binding
Details: 0.2 nM GST-hMDM2, 0.5 nM biotinylated-p53, 100 mM KF
In short: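 Time-resolved fluorescence (HTRF) read after >4 h equilibration with SA-XLent/anti-GST cryptate/KF detection reagents. Reaction: compound plus GST-hMDM2 for 20 min at room temperature, then E. coli-expressed biotinylated p53 residues 1-83 for 60 min, 2% DMSO final. Inhibition expressed versus nutlin-3.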

T1 sequence (Q00987 1-188): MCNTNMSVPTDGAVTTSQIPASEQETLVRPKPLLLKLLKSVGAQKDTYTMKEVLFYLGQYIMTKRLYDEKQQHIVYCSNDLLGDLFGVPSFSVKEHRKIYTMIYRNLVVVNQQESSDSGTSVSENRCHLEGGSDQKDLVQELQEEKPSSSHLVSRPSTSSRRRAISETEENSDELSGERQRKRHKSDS

SMILES | IC50 [nM]
CC[C@@H](CS(=O)(=O)C(C)(C)C)N1C(=O)[C@@H](CC(=O)O)O[C@H](c2cccc(Cl)c2)[C@H]1c1ccc(Cl)cc1F (single isomer, unassigned) [Example 317, 2-((2R,5R,6R)-4-((S)-1-(tert-Butylsulfonyl)butan-2-yl)-5-(4-chloro-2-fluorophenyl)-6-(3-chlorophenyl)-3-oxomorpholin-2-yl)acetic acid or 2-((2S,5R,6R)-4-((S)-1-(tert-butylsulfonyl)butan-2-yl)-5-(4-chloro-2-fluorophenyl)-6-(3-chlorophenyl)-3-oxomorpholin-2-yl)acetic acid] | 3
CC(C)(C)S(=O)(=O)C[C@H](C1CC1)N1C(=O)[C@@H](CC(=O)O)O[C@H](c2ccc(Cl)c(Cl)c2)[C@H]1c1ccc(Cl)cc1 (single isomer, unassigned) [Example 318, 2-((2R,5R,6R)-4-((S)-2-(tert-Butylsulfonyl)-1-cyclopropylethyl)-5-(4-chlorophenyl)-6-(3,4-dichlorophenyl)-3-oxomorpholin-2-yl)acetic acid or 2-((2S,5R,6R)-4-((S)-2-(tert-butylsulfonyl)-1-cyclopropylethyl)-5-(4-chlorophenyl)-6-(3,4-dichlorophenyl)-3-oxomorpholin-2-yl)acetic acid] | 8
CC(C)(C)S(=O)(=O)C[C@H](C1CC1)N1C(=O)[C@@H](CC(=O)O)O[C@H](c2ccc(Cl)c(Cl)c2)[C@H]1c1ccc(Cl)cc1 (single isomer, unassigned) [Example 319, 2-((2R,5R,6R)-4-((S)-2-(tert-Butylsulfonyl)-1-cyclopropylethyl)-5-(4-chlorophenyl)-6-(3,4-dichlorophenyl)-3-oxomorpholin-2-yl)acetic acid or 2-((2S,5R,6R)-4-((S)-2-(tert-butylsulfonyl)-1-cyclopropylethyl)-5-(4-chlorophenyl)-6-(3,4-dichlorophenyl)-3-oxomorpholin-2-yl)acetic acid] | 113
CC(C)(C)S(=O)(=O)C[C@H](C1CC1)N1C(=O)[C@@H](CC(=O)O)O[C@H](c2ccc(F)c(Cl)c2)[C@H]1c1ccc(Cl)cc1 (single isomer, unassigned) [Example 320, 2-((2R,5R,6R)-4-((S)-2-(tert-Butylsulfonyl)-1-cyclopropylethyl)-6-(3-chloro-4-fluorophenyl)-5-(4-chlorophenyl)-3-oxomorpholin-2-yl)acetic acid or 2-((2S,5R,6R)-4-((S)-2-(tert-butylsulfonyl)-1-cyclopropylethyl)-6-(3-chloro-4-fluorophenyl)-5-(4-chlorophenyl)-3-oxomorpholin-2-yl)acetic acid] | 3
CC(C)(C)S(=O)(=O)C[C@H](C1CC1)N1C(=O)[C@@H](CC(=O)O)O[C@H](c2ccc(F)c(Cl)c2)[C@H]1c1ccc(Cl)cc1 (single isomer, unassigned) [Example 321, 2-((2R,5R,6R)-4-((S)-2-(tert-Butylsulfonyl)-1-cyclopropylethyl)-6-(3-chloro-4-fluorophenyl)-5-(4-chlorophenyl)-3-oxomorpholin-2-yl)acetic acid or 2-((2S,5R,6R)-4-((S)-2-(tert-butylsulfonyl)-1-cyclopropylethyl)-6-(3-chloro-4-fluorophenyl)-5-(4-chlorophenyl)-3-oxomorpholin-2-yl)acetic acid] | 2
CC(C)(C)SC[C@H](C1CC1)N1C(=O)[C@@H](CC(=O)O)O[C@H](c2ccc(Br)c(Cl)c2)[C@H]1c1ccc(Cl)cc1 (single isomer, unassigned) [Example 322, 2-((2R,5R,6R)-6-(4-Bromo-3-chlorophenyl)-4-((S)-2-(tert-butylthio)-1-cyclopropylethyl)-5-(4-chlorophenyl)-3-oxomorpholin-2-yl)acetic acid or 2-((2S,5R,6R)-6-(4-bromo-3-chlorophenyl)-4-((S)-2-(tert-butylthio)-1-cyclopropylethyl)-5-(4-chlorophenyl)-3-oxomorpholin-2-yl)acetic acid] | 51
CC(C)(C)SC[C@H](C1CC1)N1C(=O)[C@@H](CC(=O)O)O[C@H](c2ccc(Br)c(Cl)c2)[C@H]1c1ccc(Cl)cc1 (single isomer, unassigned) [Example 323, 2-((2R,5R,6R)-6-(4-Bromo-3-chlorophenyl)-4-((S)-2-(tert-butylthio)-1-cyclopropylethyl)-5-(4-chlorophenyl)-3-oxomorpholin-2-yl)acetic acid or 2-((2S,5R,6R)-6-(4-bromo-3-chlorophenyl)-4-((S)-2-(tert-butylthio)-1-cyclopropylethyl)-5-(4-chlorophenyl)-3-oxomorpholin-2-yl)acetic acid] | 16
CC(C)(C)S(=O)(=O)C[C@H](C1CC1)N1C(=O)[C@@H](CC(=O)O)O[C@H](c2ccc(C#N)c(Cl)c2)[C@H]1c1ccc(Cl)cc1 (single isomer, unassigned) [Example 324, 2-((2R,5R,6R)-4-((S)-2-(tert-Butylsulfonyl)-1-cyclopropylethyl)-6-(3-chloro-4-cyanophenyl)-5-(4-chlorophenyl)-3-oxomorpholin-2-yl)acetic acid or 2-((2S,5R,6R)-4-((S)-2-(tert-butylsulfonyl)-1-cyclopropylethyl)-6-(3-chloro-4-cyanophenyl)-5-(4-chlorophenyl)-3-oxomorpholin-2-yl)acetic acid] | 7
CC(C)(C)S(=O)(=O)C[C@H](C1CC1)N1C(=O)[C@@H](CC(=O)O)O[C@H](c2ccc(C#N)c(Cl)c2)[C@H]1c1ccc(Cl)cc1 (single isomer, unassigned) [Example 325, 2-((2R,5R,6R)-4-((S)-2-(tert-Butylsulfonyl)-1-cyclopropylethyl)-6-(3-chloro-4-cyanophenyl)-5-(4-chlorophenyl)-3-oxomorpholin-2-yl)acetic acid or 2-((2S,5R,6R)-4-((S)-2-(tert-butylsulfonyl)-1-cyclopropylethyl)-6-(3-chloro-4-cyanophenyl)-5-(4-chlorophenyl)-3-oxomorpholin-2-yl)acetic acid] | 4
COc1ccc([C@H]2O[C@H](CC(=O)O)C(=O)N([C@H](CSC(C)(C)C)C3CC3)[C@@H]2c2ccc(Cl)cc2)cc1Cl (single isomer, unassigned) [Example 328, 2-((2R,5R,6R)-4-((S)-2-(tert-Butylthio)-1-cyclopropylethyl)-6-(3-chloro-4-methoxyphenyl)-5-(4-chlorophenyl)-3-oxomorpholin-2-yl)acetic acid or 2-((2S,5R,6R)-4-((S)-2-(tert-butylthio)-1-cyclopropylethyl)-6-(3-chloro-4-methoxyphenyl)-5-(4-chlorophenyl)-3-oxomorpholin-2-yl)acetic acid] | 12
CC[C@@H](CN(c1ccccc1F)S(=O)(=O)C1CC1)N1C(=O)[C@@](C)(CC(=O)O)O[C@H](c2cccc(Cl)c2)[C@H]1c1ccc(Cl)cc1 (single isomer, unassigned) [Example 329, 2-((2R,5R,6R)-6-(3-Chlorophenyl)-5-(4-chlorophenyl)-4-((S)-1-(N-(2-fluorophenyl)cyclopropanesulfonamido)butan-2-yl)-2-methyl-3-oxomorpholin-2-yl)acetic acid or 2-((2S,5R,6R)-6-(3-chlorophenyl)-5-(4-chlorophenyl)-4-((S)-1-(N-(2-fluorophenyl)cyclopropanesulfonamido)butan-2-yl)-2-methyl-3-oxomorpholin-2-yl)acetic acid] | 138
CC[C@@H](CN(c1ccccc1F)S(=O)(=O)C1CC1)N1C(=O)[C@@](C)(CC(=O)O)O[C@H](c2cccc(Cl)c2)[C@H]1c1ccc(Cl)cc1 (single isomer, unassigned) [Example 330, 2-((2R,5R,6R)-6-(3-Chlorophenyl)-5-(4-chlorophenyl)-4-((S)-1-(N-(2-fluorophenyl)cyclopropanesulfonamido)butan-2-yl)-2-methyl-3-oxomorpholin-2-yl)acetic acid or 2-((2S,5R,6R)-6-(3-chlorophenyl)-5-(4-chlorophenyl)-4-((S)-1-(N-(2-fluorophenyl)cyclopropanesulfonamido)butan-2-yl)-2-methyl-3-oxomorpholin-2-yl)acetic acid] | 1
C[C@]1(CC(=O)O)O[C@H](c2cccc(Cl)c2)[C@@H](c2ccc(Cl)cc2)N([C@H](CN(c2ccccc2F)S(=O)(=O)C2CC2)C2CC2)C1=O (single isomer, unassigned) [Example 331, 2-((2R,5R,6R)-6-(3-Chlorophenyl)-5-(4-chlorophenyl)-4-((S)-1-cyclopropyl-2-(N-(2-fluorophenyl)cyclopropanesulfonamido)ethyl)-2-methyl-3-oxomorpholin-2-yl)acetic acid or 2-((2S,5R,6R)-6-(3-chlorophenyl)-5-(4-chlorophenyl)-4-((S)-1-cyclopropyl-2-(N-(2-fluorophenyl)cyclopropanesulfonamido)ethyl)-2-methyl-3-oxomorpholin-2-yl)acetic acid] | < 1
C[C@]1(CC(=O)O)O[C@H](c2cccc(Cl)c2)[C@@H](c2ccc(Cl)cc2)N([C@H](CN(c2ccccc2F)S(=O)(=O)C2CC2)C2CC2)C1=O (single isomer, unassigned) [Example 332, 2-((2R,5R,6R)-6-(3-Chlorophenyl)-5-(4-chlorophenyl)-4-((S)-1-cyclopropyl-2-(N-(2-fluorophenyl)cyclopropanesulfonamido)ethyl)-2-methyl-3-oxomorpholin-2-yl)acetic acid or 2-((2S,5R,6R)-6-(3-chlorophenyl)-5-(4-chlorophenyl)-4-((S)-1-cyclopropyl-2-(N-(2-fluorophenyl)cyclopropanesulfonamido)ethyl)-2-methyl-3-oxomorpholin-2-yl)acetic acid] | 27
